# Measured values reported in US20250163052A1, “cGAS INHIBITORS AND USES THEREOF” (Cornell University, priority 2022, published 2025).
# Tests used:
# h-cGAS = h-cGAS (Homo sapiens, UniProt Q8N884); assay: Cell-free human cGAS enzyme inhibition assay (ATP depletion, Kinase-Glo Max); format: biochemical; conditions: 3 h; for inhibition at 10 µM: read-out: h-cGAS, conc. 10 μM; for inhibition at 1 µM: read-out: h-cGAS, conc. 1 μM
# Procedure: (§1) Cell-free mouse and human cGAS enzyme inhibition assay (Table 2). Activity of all compounds (in Table 1) against m-cGAS (30 nM) and or h-cGAS, (100 nM) was determined by measuring the conversion of ATP and GTP (100 μM each) to cGAMP in the presence of dsDNA (5 ug/mL) in a reaction buffer composed of Tris-HCl (20 mM, pH7.4), NaCl (150 mM), MnCl2 (0.2 mM, h-cGAS) or MgCl2 (5 mM, m-cGAS) and Tween-20 (0.01%), and the remaining ATP concentration using Kinase-Glo®Max Luminescent Kinase Assay (Promega, Madison, WI), as described (Lama, et. al., 2019). Briefly, 10 μl of a master mix of 0.4 mM ATP, 0.4 mM GTP, 0.02 mg/mL dsDNA in the reaction buffer supplemented with 2 mM DTT was added to reaction wells containing TDI-6570 or TDI-8246 (2× of the desired concentration) in the same buffer ([…]) using a Thermo 8-channel Multidrop Combi dispenser. Next, 10 μl of a 4×m-cGAS (0.120 μM) or h-cGAS (0.4 μM) solution in the reaction buffer supplemented with 2 mM DTT was added to appropriate wells. Similar sets of reactions without cGAS or the inhibitor was set by adding the buffer alone. The reactions with the plates sealed were incubated at 37° C. (1 hour for m-cGAS and 3 hours for h-cGAS) and stopped by addition of 40 μl of the Kinase-Glo®Max. The luminescence was recorded in relative light units (RLUs) using a Biotek Synergy H1 Hybrid plate reader (BioTek, Winooski, VT). […] All reactions were run in triplicates and calculated using GraphPad Prism 9. The values represent mean IC50±S.D.
# m-cGAS = m-cGAS (Mus musculus, UniProt Q8C6L5); assay: Cell-free mouse cGAS enzyme inhibition assay (ATP depletion, Kinase-Glo Max); format: biochemical; conditions: 1 h; for inhibition at 10 µM: read-out: m-cGAS, conc. 10 μM; for inhibition at 1 µM: read-out: m-cGAS, conc. 1 μM
# Procedure: as §1
# IFNB = assay: THP1-Dual cells transfected with DNA, Ifnb expression (Quantiluc); format: cell-based; conditions: Homo sapiens; for inhibition at 10 µM: THP-1, 10 μM; for inhibition at 30 µM: THP-1, 30 μM
# Procedure: (§2) Evaluation of active cGAS inhibitors in THP1 cells (Table 3). Cellular activity of all compounds (in Table 3) was determined using THP1-Dual™ cells as described (Lama et. al., 2019). THP1-Dual™ cells (Invivogen) (50000 cells in 100 μl media) were seeded into each well of a 96-well plate and treated with compounds at various dilution for 4 hours. Subsequently, cells were transfected with DNA (2 ug/ml) and lipofectamine and incubate the cells were incubated overnight. Ifnb expression was measured in cell supernatant using Quantiluc, nfkb expression was determined using Quantiblue, and cell viability using Promega® CellTiter-Glo®.
# THP1 cells = assay: THP1-Dual cells, cell viability (CellTiter-Glo); format: cell-based
# Procedure: as §2
# m-cGAS, sequence (Q8C6L5 whole entry): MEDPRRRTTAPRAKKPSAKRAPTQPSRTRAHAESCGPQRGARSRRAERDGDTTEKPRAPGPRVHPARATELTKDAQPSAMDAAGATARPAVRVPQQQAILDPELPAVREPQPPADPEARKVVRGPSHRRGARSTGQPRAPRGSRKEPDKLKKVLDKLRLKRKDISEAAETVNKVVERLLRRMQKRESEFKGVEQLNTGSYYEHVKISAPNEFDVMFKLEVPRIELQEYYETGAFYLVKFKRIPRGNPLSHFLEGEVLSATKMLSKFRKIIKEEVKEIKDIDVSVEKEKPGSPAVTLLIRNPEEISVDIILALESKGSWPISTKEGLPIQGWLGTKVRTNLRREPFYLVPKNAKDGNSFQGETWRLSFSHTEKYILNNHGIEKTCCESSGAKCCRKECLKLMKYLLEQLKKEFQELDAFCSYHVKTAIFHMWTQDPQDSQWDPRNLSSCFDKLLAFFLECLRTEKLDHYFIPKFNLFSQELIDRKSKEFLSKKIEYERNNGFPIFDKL
# h-cGAS, sequence (Q8N884 whole entry): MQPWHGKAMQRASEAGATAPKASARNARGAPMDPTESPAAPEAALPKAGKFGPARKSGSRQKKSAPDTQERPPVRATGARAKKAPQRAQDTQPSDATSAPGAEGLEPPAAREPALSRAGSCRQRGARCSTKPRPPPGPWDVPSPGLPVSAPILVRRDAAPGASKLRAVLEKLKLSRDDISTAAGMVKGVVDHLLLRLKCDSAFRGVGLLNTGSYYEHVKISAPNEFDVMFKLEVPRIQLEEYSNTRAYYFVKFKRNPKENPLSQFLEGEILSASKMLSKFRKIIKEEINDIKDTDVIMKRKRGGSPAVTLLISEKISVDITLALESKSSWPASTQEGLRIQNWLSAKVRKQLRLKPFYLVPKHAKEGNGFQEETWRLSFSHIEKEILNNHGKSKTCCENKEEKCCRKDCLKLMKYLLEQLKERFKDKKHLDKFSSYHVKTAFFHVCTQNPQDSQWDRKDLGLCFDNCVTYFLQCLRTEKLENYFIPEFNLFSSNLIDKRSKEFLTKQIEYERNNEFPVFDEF
SMILES,inhibition at 10 µM (h-cGAS),inhibition at 10 µM (m-cGAS),inhibition at 1 µM (h-cGAS),inhibition at 10 µM (IFNB),inhibition at 30 µM (IFNB),Cell viability 10 μM (THP1 cells),Cell viability 30 μM (THP1 cells),inhibition at 1 µM (m-cGAS)
Cn1cc(-c2cc(Cl)c(Cl)c3nc4c(n23)CN(C(=O)CN)CC4)cn1 [Compound 101],0 to 24%,0 to 24%,,,,,,
CC(C)(N)C(=O)N1CCc2sc3c(Cl)c(Cl)cc(-c4cc[nH]n4)c3c2C1 [Compound 55],0 to 24%,0 to 24%,,,,,,
Cn1ccc(-c2cc(Cl)c(Cl)c3sc4c(c23)CN(C(=O)CO)CC4)n1 [Compound 46],75 to 100%,0 to 24%,50 to 74%,25 to 49%,75 to 100%,"+++ (+, ++, and +++ mean the compound respectively shows 25-49%; 50-74%; or 75-100% viability to cells)","++ (+, ++, and +++ mean the compound respectively shows 25-49%; 50-74%; or 75-100% viability to cells)",
O=C(CO)N1CCc2c(sc3c(Cl)c(Cl)cc(-c4cncnc4)c23)C1 [Compound 65],25 to 49%,75 to 100%,,,,,,0 to 24%
O=C(CO)N1CCc2nc3c(Cl)c(Cl)cc(-c4cncnc4)n3c2C1 [Compound 98],0 to 24%,0 to 24%,,,,,,
O=C(CO)N1CCc2c(sc3c(Cl)c(Cl)cc(-c4cncs4)c23)C1 [Compound 70],0 to 24%,,,,,,,
O=C(CO)N1CCc2c(sc3c(Cl)c(Cl)cc(-c4cccnc4)c23)C1 [Compound 68],0 to 24%,,,,,,,
Cn1c2c(c3c(-c4ccn[nH]4)cc(Cl)c(Cl)c31)CN(C(=O)C1CCCN1)CC2 (stereo not shown) [Compound 18],0 to 24%,0 to 24%,,,,,,
Cn1c2c(c3c(-c4ccc(N)nc4)cc(Cl)c(Cl)c31)CN(C(=O)C1CCCN1C(=O)OC(C)(C)C)CC2 (stereo not shown) [Compound 14],0 to 24%,0 to 24%,,,,,,
O=C(CO)N1CCc2c(sc3c(Cl)c(Cl)cc(-c4ccncc4)c23)C1 [Compound 69],0 to 24%,,,,,,,
Nc1ccc(-c2cc(Cl)c(Cl)c3[nH]c4c(c23)CN(C(=O)C2(N)CC2)CC4)cn1 [Compound 19],0 to 24%,0 to 24%,,,,,,
CC(C)(N)C(=O)N1CCc2oc3c(Cl)c(Cl)cc(-c4cc[nH]n4)c3c2C1 [Compound 34],50 to 74%,,25 to 49%,75 to 100%,75 to 100%,"+++ (+, ++, and +++ mean the compound respectively shows 25-49%; 50-74%; or 75-100% viability to cells)","− (Cell viability <24%, in THP1 cells is expressed as “−”)",
O=C(CO)N1CCc2oc3c(Cl)c(Cl)cc(-c4nccs4)c3c2C1 [Compound 31],75 to 100%,,50 to 74%,50 to 74%,50 to 74%,"+++ (+, ++, and +++ mean the compound respectively shows 25-49%; 50-74%; or 75-100% viability to cells)","+++ (+, ++, and +++ mean the compound respectively shows 25-49%; 50-74%; or 75-100% viability to cells)",
NCC(=O)N1CCc2c(oc3c(Cl)c(Cl)cc(-c4cncnc4)c23)C1 [Compound 39],75 to 100%,,0 to 24%,25 to 49%,75 to 100%,"+++ (+, ++, and +++ mean the compound respectively shows 25-49%; 50-74%; or 75-100% viability to cells)","+++ (+, ++, and +++ mean the compound respectively shows 25-49%; 50-74%; or 75-100% viability to cells)",
O=C(CO)N1CCc2oc3c(Cl)c(Cl)cc(-c4cn[nH]c4)c3c2C1 [Compound 29],75 to 100%,,25 to 49%,50 to 74%,75 to 100%,"+++ (+, ++, and +++ mean the compound respectively shows 25-49%; 50-74%; or 75-100% viability to cells)","+++ (+, ++, and +++ mean the compound respectively shows 25-49%; 50-74%; or 75-100% viability to cells)",
O=C(CO)N1CCc2oc3c(Cl)c(Cl)cc(-c4cc[nH]n4)c3c2C1 [Compound 28],50 to 74%,,25 to 49%,50 to 74%,50 to 74%,"+++ (+, ++, and +++ mean the compound respectively shows 25-49%; 50-74%; or 75-100% viability to cells)","+++ (+, ++, and +++ mean the compound respectively shows 25-49%; 50-74%; or 75-100% viability to cells)",
Cn1ccc(-c2cc(Cl)c(Cl)c3sc4c(c23)CCN(C(=O)CO)C4)n1 [Compound 60],25 to 49%,50 to 74%,,,,,,0 to 24%

SMILES,inhibition at 10 µM (h-cGAS),inhibition at 10 µM (m-cGAS),inhibition at 1 µM (h-cGAS),inhibition at 10 µM (IFNB),inhibition at 30 µM (IFNB),Cell viability 10 μM (THP1 cells),Cell viability 30 μM (THP1 cells),inhibition at 1 µM (m-cGAS)
CNc1ccc(-c2cc(Cl)c(Cl)c3sc4c(c23)CCN(C(=O)CO)C4)cn1 [Compound 66],0 to 24%,,,,,,,
O=C(CO)N1CCc2sc3c(Cl)c(Cl)cc(-c4cc[nH]n4)c3c2C1 [Compound 50],0 to 24%,0 to 24%,,,,,,
O=C(CO)N1CCc2c(sc3c(Cl)c(Cl)ccc23)C1 [Compound 58],50 to 74%,75 to 100%,0 to 24%,,,,,
Nc1ccc(-c2cc(Cl)c(Cl)c3sc4c(c23)CN(C(=O)CO)CC4)cn1 [Compound 49],0 to 24%,25 to 49%,,,,,,
Cn1c2c(c3c(-c4ccn[nH]4)cc(Cl)c(Cl)c31)CN(C(=O)C1CCCN1C(=O)OC(C)(C)C)CC2 (stereo not shown) [Compound 15],0 to 24%,0 to 24%,,,,,,
O=C(CO)N1CCc2c(sc3c(Cl)c(Cl)cc(-c4cc[nH]n4)c23)C1 [Compound 61],25 to 49%,,,,,,,
Cn1ccc(-c2cc(Cl)c(Cl)c3oc4c(c23)CCN(C(=O)CN)C4)n1 [Compound 41],75 to 100%,,50 to 74%,50 to 74%,75 to 100%,"+++ (+, ++, and +++ mean the compound respectively shows 25-49%; 50-74%; or 75-100% viability to cells)","− (Cell viability <24%, in THP1 cells is expressed as “−”)",
O=C(CO)N1CCc2sc3c(Cl)c(Cl)cc(-c4cncnc4)c3c2C1 [Compound 47],50 to 74%,50 to 74%,0 to 24%,,,,,0 to 24%
NCC(=O)N1CCc2nc3c(Cl)c(Cl)cc(-c4cncnc4)n3c2C1 [Compound 100],0 to 24%,0 to 24%,,,,,,
O=C(CO)N1CCc2c(sc3c(Cl)c(Cl)cc(-c4ccco4)c23)C1 [Compound 64],25 to 49%,,0 to 24%,,,,,
O=C(CO)N1CCc2oc3c(Cl)c(Cl)cc(-c4ccco4)c3c2C1 [Compound 30],50 to 74%,,0 to 24%,< 24%,25 to 49%,"+++ (+, ++, and +++ mean the compound respectively shows 25-49%; 50-74%; or 75-100% viability to cells)","+++ (+, ++, and +++ mean the compound respectively shows 25-49%; 50-74%; or 75-100% viability to cells)",
O=C(CO)N1CCc2c(sc3c(Cl)c(Cl)cc(-c4nccs4)c23)C1 [Compound 67],25 to 49%,,,,,,,
Cn1cc(-c2cc(Cl)c(Cl)c3oc4c(c23)CCN(C(=O)CN)C4)cn1 [Compound 40],75 to 100%,,50 to 74%,75 to 100%,75 to 100%,"+++ (+, ++, and +++ mean the compound respectively shows 25-49%; 50-74%; or 75-100% viability to cells)","− (Cell viability <24%, in THP1 cells is expressed as “−”)",
CC(C)(N)C(=O)N1CCc2c(sc3c(Cl)c(Cl)cc(-c4cn[nH]c4)c23)C1 [Compound 85],50 to 74%,,0 to 24%,75 to 100%,75 to 100%,"+ (+, ++, and +++ mean the compound respectively shows 25-49%; 50-74%; or 75-100% viability to cells)","− (Cell viability <24%, in THP1 cells is expressed as “−”)",
Cn1c2c(c3c(-c4ccc(O)nc4)cc(Cl)c(F)c31)CN(C(=O)CO)CC2 [Compound 2],0 to 24%,0 to 24%,,,,,,
CC(C)(C)OC(=O)N1CCCC1C(=O)N1CCc2[nH]c3c(Cl)c(Cl)cc(-c4ccc(N)nc4)c3c2C1 (stereo not shown) [Compound 13],0 to 24%,0 to 24%,,,,,,
